Results on 2 molecules are retold here after PMC10501649, “A detoxification pathway initiated by a nuclear receptor TcHR96h in Tetranychus cinnabarinus (Boisduval)” (PLOS Genetics, 2023).

The term Kd denotes the constant that tells how readily two partners part at equilibrium.

In experiment [1] the target is TcHR96h (nuclear hormone receptor HR96h). Nature of the experiment: microscale thermophoresis (MST), supported by DARTs; R448A mutation reduces affinity […]. The format is binding, Tetranychus cinnabarinus. (In general: MST reads how a fluorescent partner responds to local heating, with and without ligand.)
The target is the same in experiment [2]. The description is as above. The class given is binding, Tetranychus cinnabarinus. The source holds these as a separate data set.

Like-named read-outs stand apart in the source and are kept apart here.

Turning to `CC(C)(C)c1ccc(C(C#N)C(=O)c2ccccc2C(F)(F)F)cc1` (centres unmarked) [AB-1], the Kd in experiment [1] is 138 µM.

Turning to `COCCOC(=O)C(C#N)(C(=O)c1ccccc1C(F)(F)F)c1ccc(C(C)(C)C)cc1` (centres unmarked) [cyflumetofen], the Kd in experiment [2] is 189 µM.
